{"source": "paper PMC4950071", "about": "“Reaction of pyranose dehydrogenase from Agaricus meleagris with its carbohydrate substrates” (The Febs Journal, 2015)", "assay_in_all_cases": "steady-state kinetics, ferrocenium reduction", "type_in_all_cases": "biochemical", "key": {"[1]": {"target": "T1, AmPDH (pyranose dehydrogenase from Agaricus meleagris; A. meleagris PDH1) (Macropsalliota meleagris, UniProt Q3L245)", "T1 construct": "C-terminal His6 tag; covalent FAD", "T1 sequence (Q3L245 26-602)": "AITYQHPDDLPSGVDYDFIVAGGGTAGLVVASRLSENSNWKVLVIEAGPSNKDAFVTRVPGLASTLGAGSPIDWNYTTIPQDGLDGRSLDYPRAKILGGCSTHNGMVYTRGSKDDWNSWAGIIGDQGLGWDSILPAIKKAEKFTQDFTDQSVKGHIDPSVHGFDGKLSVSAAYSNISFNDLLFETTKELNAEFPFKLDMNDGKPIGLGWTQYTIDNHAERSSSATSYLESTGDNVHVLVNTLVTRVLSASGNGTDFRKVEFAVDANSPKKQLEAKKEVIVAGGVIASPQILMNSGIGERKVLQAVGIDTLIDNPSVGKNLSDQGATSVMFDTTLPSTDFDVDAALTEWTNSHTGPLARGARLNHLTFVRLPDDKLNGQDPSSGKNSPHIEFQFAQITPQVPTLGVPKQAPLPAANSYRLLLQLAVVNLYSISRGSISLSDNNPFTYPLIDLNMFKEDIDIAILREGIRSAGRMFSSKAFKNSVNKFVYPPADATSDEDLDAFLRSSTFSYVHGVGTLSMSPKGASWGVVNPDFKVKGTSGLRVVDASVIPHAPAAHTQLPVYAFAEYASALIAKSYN", "settings": "apparent; electron acceptor; 25 mM glucose fixed, 100 mM borate pH 8.5, 30 °C; read-out: Fc^+ / K M", "source_text": "(§1) steady-state kinetics, ferrocenium reduction on AmPDH (pyranose dehydrogenase from Agaricus meleagris; A. meleagris PDH1)"}, "[2]": {"target": "T2, AmPDH (pyranose dehydrogenase from Agaricus meleagris; A. meleagris PDH1) (Macropsalliota meleagris, UniProt Q3L245, H581A)", "T2 construct": "C-terminal His6 tag; covalent FAD", "T2 sequence (Q3L245 26-602 H581A)": "as the sequence (Q3L245 26-602) above, with H556A counted along it", "settings": "apparent; electron acceptor; 500 mM glucose fixed, 100 mM borate pH 8.5, 30 °C; read-out: Fc^+ / K M", "source_text": "as §1"}, "[3]": {"target": "T3, AmPDH (pyranose dehydrogenase from Agaricus meleagris; A. meleagris PDH1) (Macropsalliota meleagris, UniProt Q3L245, H128A)", "T3 construct": "C-terminal His6 tag; covalent FAD", "T3 sequence (Q3L245 26-602 H128A)": "as the sequence (Q3L245 26-602) above, with H103A counted along it", "settings": "apparent; electron acceptor; 50 mM glucose fixed, 100 mM borate pH 8.5, 30 °C; non-covalently bound FAD; read-out: Fc^+ / K M", "source_text": "as §1"}}}
{"smiles": "C1=CCC=C1.C1=CCC=C1.[Fe+3]", "note": "[Fc^+, ferrocenium ion]", "values": [{"measurement": "Km", "setting": "[1]", "value": "170 ± 20", "unit": "µM"}, {"measurement": "Km", "setting": "[2]", "value": "170 ± 10", "unit": "µM"}, {"measurement": "Km", "setting": "[3]", "value": "160 ± 10", "unit": "µM"}]}
